Assay results from patent EP1555944B1, “PACKAGED ANTIMICROBIAL MEDICAL DEVICE AND METHOD OF PREPARING SAME” (ETHICON, INC., priority 2002, dated 2004).

How the values were obtained:
[1] = Triclosan distribution between suture and package components after sterilization; type: physicochemical; settings: size 5-0 suture, 2% triclosan coating composition, about 23.2 µg before sterilization
Procedure: The coated sutures each were placed in a package as described herein above including a containment component, i.e., a tray, for holding the suture and a paper component for covering the suture in the tray. The suture in the containment component and packaging were sterilized as described herein above. After sterilization, it was determined that that suture contained about 5.5 µg triclosan, the tray about 0.2 µg triclosan, the paper component about 2.3 µg triclosan, and the package heat seal coating about 1.5 µg triclosan. Triclosan not recovered after sterilization was about 13.7 µg triclosan. Fig. 1 indicates triclosan transfer from the antimicrobial suture to the tray of the package as a function of time at 55°C.

S. aureus = settings: suitable growth medium; cited from earlier work

In the case of `Oc1cc(Cl)ccc1Oc1ccc(Cl)cc1Cl` [2,4,4'-trichloro-2'-hydroxydiphenyl ether], the “Triclosan not recovered after sterilization” value [1] is reported as “about 13.7 µg”, the “triclosan on package heat seal coating after sterilization” value [1] is reported as “about 1.5 µg” and the “triclosan on paper component after sterilization” value [1] is reported as “about 2.3 µg”. The “triclosan on suture after sterilization” value [1] was “about 5.5 µg”, the “triclosan on tray after sterilization” value [1] was “about 0.2 µg” and the “minimum inhibitory concentration (MIC)” value (S. aureus) was 0.01 ppm.
